Reference: US20100105707A1, “METHOD OF TREATING OR PREVENTING OXIDATIVE STRESS-RELATED DISEASE” (The United States of America, priority 2006, published 2010)
In brackets after ≈: the same amount, converted by molar mass.

Legend:
[1] = system: mouse model of focal ischemic stroke; test: Focal cerebral ischemia-reperfusion (middle cerebral artery occlusion) model; type: in vivo, C57BL/6 mice; conditions: administered 1 h after ischemia onset; for functional outcome (neurological deficit score): FIG. 5A; for brain damage: FIG. 5B
Protocol: (§1) FIG. 4 illustrates that a compound of formula (I) improves functional outcome (e.g., ambulation) and reduces brain damage in a mouse model of focal ischemic stroke in an embodiment of the invention. In FIG. 4A neurological function is scored at 24, 48 and 72 hours post-stroke. In FIG. 4B infarct volume is quantified at 72 hours post-stroke. Values are the mean and SEM (n=8-12 mice). *p<0.001 compared to sham. +p<0.01 compared to vehicle.
as §1, with “FIG. 5” for “FIG. 4”, “that compounds” for “that a compound”, “(I) improve” for “(I) improves”, “outcome” for “outcome (e.g., ambulation)”, “FIG. 5A,” for “FIG. 4A”, “FIG. 5B,” for “FIG. 4B”
Three month-old male C57BL/6 mice are maintained on a 12 h light/12 h dark cycle with continuous access to food and water. The method for subjecting the mice to middle cerebral artery occlusion-reperfusion has been described previously (Arumugam et al., Am. J. Physiol. Heart Circ. Physiol., 287, H2555-2560 (2004)). Mice are anesthetized with isofluorane, a midline incision is made in the neck, and the left external carotid and pterygopalatine arteries are isolated and ligated with 5-0 silk thread. The internal carotid artery (ICA) is occluded at the peripheral site of the bifurcation of the internal carotid artery and the pterygopalatine artery with a small clip and the common carotid artery is ligated with 5-0 silk thread. The external carotid artery is cut, and a 6-0 nylon monofilament with a tip that is blunted (0.2-0.22 mm) with a coagulator is inserted into the external carotid artery. After the clip at the ICA is removed, the nylon thread is advanced into the middle cerebral artery until light resistance is felt. The nylon thread and the common carotid artery ligature are removed after 1 h of occlusion to initiate reperfusion. In the sham group, these arteries are visualized but not disturbed. Mice are administered either uric acid analogs of formula (I) or vehicle (dimethylsulfoxide) by infusion into the femoral vein (10 μl infused over a 2 min period) either 30 min prior to or 60 min after the onset of middle cerebral artery (MCA) occlusion. In a separate set of experiments anesthetized animals from all groups (4-6 mice per group) undergo cerebral blood flow (CBF) measurements using a laser Doppler perfusion monitor. All blood flow measurements are conducted with the mouse fixed in a plastic frame with the probe placed in the region of cerebral cortex perfused by the middle cerebral artery. These procedures are approved by the National Institute on Aging Animal Care and Use Committee.
The functional consequences of focal cerebral ischemia-reperfusion injury are evaluated by using a five-point neurological deficit score (0, no deficit; 1, failure to extend right paw; 2, circling to the right; 3, falling to the right; and 4, unable to walk spontaneously) and are assessed in a blinded fashion. At 72 h of reperfusion, the mice are killed with a lethal dose of isofluorane. The brains are immediately removed and placed into PBS (4° C.) for 15 min, and 2-mm coronal sections are cut with a tissue cutter. The brain sections are stained with 2% 2,3,5-triphenyltetrazolium chloride in phosphate buffer at 37° C. for 15 min. The stained sections are photographed, and the digitized images are used for analysis. The borders of the infarct in each brain slice are outlined and the area quantified using a NIH image 6.1 software. To correct for brain swelling, the infarct area is determined by subtracting the area of undamaged tissue in the left hemisphere from that of the intact contralateral hemisphere. Infarct volume is calculated by integration of infarct areas for all slices of each brain.

[2] = Pharmacokinetics: plasma and brain levels after intravenous administration; type: in vivo, C57BL/6 mice; conditions: mice; for Kp: male, C57BL/6, mouse, brain (cerebral cortical tissue) / plasma, early time points (15-30 min), read-out: brain tissue concentration as percentage of plasma concentration; for detection in the brain: equimolar to 10 mg/kg uric acid, 15, 30, 60 and 120 min; for brain concentration time course versus plasma: through the 120 min time point
Protocol: Mice are administered intravenously 10 mg/kg ([…]) of uric acid as a reference compound and equimolar doses of its analogs (sUA4-2,6,8 trithio uric acid, 12.9 mg/kg; mUA2-1,7 dimethyl uric acid, 11.7 mg/kg; sUA2-6,8 dithio uric acid, 11.9 mg/kg). Three month-old male C57BL/6 mice are injected with a compound and are euthanized 15, 30, 60 or 120 min later (1 mouse/time point/compound). Blood and brain tissues are rapidly removed, frozen on dry ice and kept at −80° C. before quantification of uric acid analogs. Plasma and cerebral cortical tissues are extracted in 10 volumes of 0.5 M perchloric acid and 1 mM ethylenediamine tetraacetic acid (EDTA). Levels of uric acid analogs in the extracts are quantified by HPLC methods employing a 25 cm RP C18 column, 25 mM KH2PO4 buffer (pH=4.6) with 1 ml/min flow rate and UV diode array detection.
Mice that are administered mUA2, sUA2 or sUA4 intravenously are euthanized at increasing time points (15, 30, 60 and 120 min) and levels of the compounds in plasma and brain tissue are measured.

[3] = Water solubility in cold water; type: physicochemical
Protocol: Commercially available derivatives are obtained from Sigma-Aldrich (St. Louis, Mo.). The methods used for the synthesis of methyl- and sulfur-derivatives of uric acid are similar to those described previously (Beaman et al., J. Org. Chem., 27, 986-990 (1962) and Maruyama et al., Nucleosides, Nucleotides, Nucleic Acids, 19, 1193-1203 (2000)) and structures are confirmed by ^13C nuclear magnetic resonance (NMR) and ultra-violet (UV) spectral analyses. Uric acid analogs are assayed by high performance liquid chromatography (HPLC) and found to be of >97% purity.

[4] = system: cultured hippocampal neurons; test: Oxygen and glucose deprivation (OGD) of cultured hippocampal neurons; type: cell-based, rat; conditions: compared to neurons in control cultures; FIG. 2
Protocol: FIG. 2 illustrates that compounds of formula (I) protect cultured hippocampal neurons against ischemia-like conditions in an embodiment of the invention. Neuronal survival is quantified and values are the mean and SEM (n=8-10 cultures). *p<0.05 compared to the vehicle/OGD cultures. Synaptosomes are prepared from the cerebral cortex of 2-3 month-old adult male Sprague-Dawley rats and are cryopreserved using methods described previously (Begley et al., Brain Res. Protoc., 3, 76-82 (1998)). After thawing, cryopreserved synaptosomes are washed twice with Locke's buffer and plated in 24-well plates at a protein concentration of 250 μg per well. After a 30 min period to permit attachment of the synaptosomes to the substrate, synaptomoses are incubated for 1 h with compounds of formula (I) (1-10 μM), and then exposed for 4 h to freshly prepared 50 μM Fe^2+ (FeSO4). After an additional 30 min incubation in the presence of 10 μM dihydrorhodamine 123 (DHR), a probe for ROS which fluoresces when oxidized (Keller et al., J. Neurochem., 69, 273-284 (1997)), the synaptosomes are washed twice with Locke's buffer and levels of fluorescence are quantified using a fluorescence plate reader (488 nm excitation and 510 emission wavelengths). Fluorescence values for wells exposed to experimental treatments are expressed as a percentage of the mean value for untreated control wells. […] Methods for preparation and maintenance of cultures of PC12 cells and primary embryonic rat hippocampal neurons have been described previously (Furukawa et al., J. Neurosci., 17, 8178-8186 (1997) and Chan et al., J. Biol. Chem., 279, 28733-28743 (2004)). Cells are plated into polyethylenimine-coated plastic 96-well culture plates containing Neurobasal medium with B27 supplements. Experiments are performed in 7-8 day-old cultures (hippocampal neurons) or Dulbecco's modified eagle's medium (DMEM) with 10% fetal bovine serum (PC12 cells). […] Cell viability is quantified by counting viable neurons in premarked microscope fields prior to and following experimental treatment and then calculating percent survival.

[5] = system: primary hippocampal neurons; test: Hippocampal neuron death induced by Fe2+; type: cell-based, rat; conditions: FIGS. 3C and 3D
Text: (§2) FIG. 3 illustrates that uric acid and a compound of formula (I) protect cultured neural cells against oxidative and excitotoxic injury in an embodiment of the invention. Cultured PC12 cells are pretreated with uric acid (FIG. 3A) or mUA3 (FIG. 3B). Cultured hippocampal neurons are pretreated with uric acid (FIG. 3C) or mUA3 (FIG. 3D). Cell survival is quantified and values are the mean and SEM of 4-8 cultures. *p<0.05 compared to 0 uric acid or mUA3 concentration.
(§3) Methods for preparation and maintenance of cultures of PC12 cells and primary embryonic rat hippocampal neurons have been described previously (Furukawa et al., J. Neurosci., 17, 8178-8186 (1997) and Chan et al., J. Biol. Chem., 279, 28733-28743 (2004)). Cells are plated into polyethylenimine-coated plastic 96-well culture plates containing Neurobasal medium with B27 supplements. Experiments are performed in 7-8 day-old cultures (hippocampal neurons) or Dulbecco's modified eagle's medium (DMEM) with 10% fetal bovine serum (PC12 cells). Hippocampal neurons and PC12 cells are plated 7 days and 3 days prior to experiments, respectively. […] Cell viability is quantified by counting viable neurons in premarked microscope fields prior to and following experimental treatment and then calculating percent survival. […]

[6] = system: ROS in cerebral cortex synaptosomes; test: Synaptosome antioxidant assay (Fe2+-induced ROS, dihydrorhodamine 123); type: cell-based, Sprague-Dawley rats; conditions: 1-10 μM, 1 h pretreatment, then 50 μM Fe2+ for 4 h; FIG. 1B
Protocol: FIG. 1A depicts structures of uric acid and exemplary compounds of formula (I). FIG. 1B illustrates antioxidant activities of uric acid and compounds of formula (I) as quantified using a synaptosome assay in an embodiment of the invention. Levels of reactive oxygen species (ROS) are measured and values are expressed as a percentage of ROS present in Fe^2+-treated control synaptosomes (mean and SEM, n=4 experiments). *p<0.05, **p<0.01 compared to the control value.
Synaptosomes are prepared from the cerebral cortex of 2-3 month-old adult male Sprague-Dawley rats and are cryopreserved using methods described previously (Begley et al., Brain Res. Protoc., 3, 76-82 (1998)). After thawing, cryopreserved synaptosomes are washed twice with Locke's buffer and plated in 24-well plates at a protein concentration of 250 μg per well. […] After an additional 30 min incubation in the presence of 10 μM dihydrorhodamine 123 (DHR), a probe for ROS which fluoresces when oxidized (Keller et al., J. Neurochem., 69, 273-284 (1997)), the synaptosomes are washed twice with Locke's buffer and levels of fluorescence are quantified using a fluorescence plate reader (488 nm excitation and 510 emission wavelengths). Fluorescence values for wells exposed to experimental treatments are expressed as a percentage of the mean value for untreated control wells.

[7] = system: primary hippocampal neurons; test: Hippocampal neuron death induced by glutamate excitotoxicity; type: cell-based, rat; conditions: FIGS. 3C and 3D
Text: as §2, §3

[8] = system: PC12 cells; test: PC12 cell death induced by MPP+; type: cell-based; conditions: concentrations of 0.1 to 10 μM; FIGS. 3A and 3B
Text: as §2, §3

[9] = system: PC12 cells; test: PC12 cell death induced by Fe2+; type: cell-based; conditions: concentrations of 0.1 to 10 μM; FIGS. 3A and 3B
Text: as §2, §3

## Cn1c(=O)[nH]c2[nH]c(=O)n(C)c2c1=O [mUA2, 1,7 dimethyl uric acid]
[1]
  functional outcome (neurological deficit score): significantly improve functional outcome
  brain damage: decrease brain damage
[2]
  Kp: ~0.1
  detection in the brain: detected in the brain at all time points examined
  brain concentration time course versus plasma: remain elevated while plasma concentrations decrease progressively
[3]
  solubility: 2000 µg/mL (≈ 10.2 mM)
[4]
  resistance to OGD induced death: significantly more resistant

## S=c1[nH]c(=S)c2[nH]c(=S)[nH]c2[nH]1 [sUA4, 2,6,8 trithio uric acid]
[1]
  functional outcome (neurological deficit score): significantly improve functional outcome
  brain damage: decrease brain damage
[2]
  Kp: ~0.1
  detection in the brain: detected in the brain at all time points examined
  brain concentration time course versus plasma: remain elevated while plasma concentrations decrease progressively
[3]
  solubility: 3000 µg/mL (≈ 13.9 mM)
[4]
  resistance to OGD induced death: significantly more resistant

## O=c1[nH]c(=O)c2[nH]c(=O)[nH]c2[nH]1 [uric acid]
[5]
  protection of primary hippocampal neurons against death induced by Fe2+: protected
[6]
  levels of ROS in synaptosomes: significantly diminished
[3]
  solubility: 100 µg/mL (≈ 0.595 mM)
[7]
  protection of primary hippocampal neurons against glutamate excitotoxicity: protected
[8]
  protection of PC12 cells against MPP+: protected
[9]
  protection of PC12 cells against Fe2+: protected
